# In paper PMC10821118, “Gallium-68-Labeled KISS1-54 Peptide for Mapping KISS1 Receptor via PET: Initial Evaluation in Human Tumor Cell Lines and in Tumor-Bearing Mice” (Pharmaceuticals, 2023):
# Ends that are not written are not given here.
# Assays:
# [1] = test system: MDA-MB-231 tumor xenograft; format: in vivo, CD1 nu/nu mice
# Protocol: (§1) The animal studies were conducted according to the principles and procedures outlined in the Guide for the Care and Use of Laboratory Animals and were in line with the Animal Welfare Act and the directive 2010/63/EU. All mice (CD1-Foxn1nu) were purchased from Charles River (Sulzfeld, Germany) and held in the animal facility of the University Hospital of Würzburg. After their arrival, they had at least a week to get used to their new environment in the animal facility.
# (§2) Then, 5 × 10^6 MDA-MB-231-cells in PBS and 5 × 10^6 LNCap cells in Matrigel Matrix® without phenol-red (Corning Life Sciences B.V., Amsterdam, The Netherlands), respectively, were inoculated subcutaneously into the front flank of eight-week-old mice. After implantation, the animals were examined and monitored daily for tumor size and well-being.
# (§3) After the tumor reached a size of ≥0.5 cm in diameter, micro-PET scans were started.
# (§4) For tracer injection, and during the micro-PET scans, mice were kept under 1.5% isoflurane anesthesia in 100% oxygen. Body temperature was maintained at a physiological level by using heating pads throughout the whole examination period.
# (§5) Then, 3.0 ± 0.9 MBq of freshly prepared [^68Ga]KISS1-54 was injected intravenously (i.v.) into the tail vein. The first animals were scanned over 80 min directly after tracer injection to find out the optimal time point for PET acquisition. […] Therefore, data acquisition for all further mice started 60 min p.i. over 20 min.
# (§6) Each acquired set of data was sorted with Fourier rebinning (FORE) to a 2D dataset of sinograms, which were reconstructed with the OSEM2D reconstruction algorithm. The software AMIDE Medical Image Data Examiner (Version 1.0.4) was used to quantify the radioactivity uptake in various regions of interest (ROIs). For the semi-quantitative analysis of the PET images, spherical ROIs were defined and used. For quantification, tumor-to-muscle, tumor-to-liver, and tumor-to-lung ratios (maximal tumor uptake/mean organ uptake) were calculated.
# LNCap tumor xenograft = format: in vivo, CD1 nu/nu mice
# Protocol: as §1, §2, §3, §4, §5, §6
# KISS1R in HCT116 cells = experiment: KISS1R expression by immunofluorescence after Decitabine pre-incubation; format: cell-based, human; conditions: HCT116 pre-incubated 72 h with 5 µM Decitabine versus untreated
# Protocol: Cells were seeded in 24-well plates on microscope cover glasses (VWR, Ismaning, Germany). After fixation/permeabilization, cells were incubated overnight with anti-KISS1R antibody (abcam, Berlin, Germany) or without primary antibody (negative control) and then stained with Alexa-Fluor®-488 conjugated secondary antibody (abcam, Berlin, Germany). The nucleus was counterstained with 4′,6-Diamidin-2-phenylindol (DAPI) (Sigma-Aldrich, Deisenhofen, Germany). Fluorescence images were taken on an Axio Scope.A1 fluorescence microscope equipped with a camera and the ZEN2 (blue edition)-Software, version 2.0.0.0 (Zeiss, Jena, Germany). Fluorescence canals were merged using the software FIJI (Image J, version 1.53t).
# Cells were seeded in 24-well plates, and 1 h before [^68Ga]KISS1-54 uptake, the cell culture medium was replaced by PBS/5% BSA. Cells were incubated at 37 °C with [^68Ga]KISS1-54 for 5–90 min or co-incubated for 60 min with [^68Ga]KISS1-54 and KISS1-54 (Sigma Aldrich, Deisenhofen, Germany). After incubation, cells were washed three times with ice-cold PBS/5% BSA and harvested. Radioactivity was measured with a gamma-counter (Wizard 2480, Perkin-Elmer, Rodgau, Germany), and cells were subsequently counted with Countess 3 (Thermo Fisher Scientific, Waltham, MA, USA). […]
# [2] = molecular target: KISS1 receptor (KISS1R or GPR54); conditions: affinity for KISS1R; ref [1],[2]; cited from earlier work
# Protocol: Kisspeptins (KPs) summarize the family of KISS1 peptides, which bind at the KISS1 receptor (KISS1R or GPR54) with high affinity. Among the KPs, KISS1-54 is the best characterized representative (Ki 1.45 ± 0.1 nM for KISS1-54). The Kiss1 gene was first identified as a metastasis suppressor gene in melanoma, which suppresses metastasis without affecting the formation of primary tumor [3]. Since then, Kisspeptin was also identified in pancreatic, lung, breast, ovarian, gastric, colon, bladder, esophageal, and small intestine cancer.
# HCT116 cells = experiment: In vitro cell uptake, HCT116; format: cell-based, human
# Protocol: (§7) Cells were seeded in 24-well plates, and 1 h before [^68Ga]KISS1-54 uptake, the cell culture medium was replaced by PBS/5% BSA. Cells were incubated at 37 °C with [^68Ga]KISS1-54 for 5–90 min or co-incubated for 60 min with [^68Ga]KISS1-54 and KISS1-54 (Sigma Aldrich, Deisenhofen, Germany). After incubation, cells were washed three times with ice-cold PBS/5% BSA and harvested. Radioactivity was measured with a gamma-counter (Wizard 2480, Perkin-Elmer, Rodgau, Germany), and cells were subsequently counted with Countess 3 (Thermo Fisher Scientific, Waltham, MA, USA). In the case of treatment with 5-Aza-2′-Deoxycytidine (Decitabine (DC)), cells were preincubated for 72 h in cell culture medium containing 5 µM Decitabine (Merck Millipore, Darmstadt, Germany). For data analysis, the determined accumulation of [^68Ga]KISS1-54 in vitro was standardized as “uptake/100,000 cells” for a better comparison. For example, the cell number differed between pretreatment with and without Decitabine, which is due to the treatment itself, making standardization necessary.
# LNCap cells = experiment: In vitro cell uptake, LNCap; format: cell-based, human; conditions: 60 min co-incubation with nonradioactive KISS1-54, 1,000-fold, p = 0.047
# Protocol: as §7
# [3] = format: in vitro ADME, human
# Protocol: For the determination of the […] stability, [^68Ga]KISS1-54 was incubated in fresh human serum at 37 °C for 3 h. After 0.5 h, 1 h, 2 h, and 3 h, adequate samples were taken, purified, and analyzed via HPLC under the conditions described above. […] The measured radioactivity (counts per minute) for each fraction was plotted versus time in a graph.
# in vivo = experiment: in vivo; design: species or system CD1 nu/nu mice; conditions: mouse, iv; for tissue uptake at 1 h: CD1-Foxn1nu (CD1 nu/nu), total radioactivity
# Protocol: as §1, §2, §3, §4, §5, §6
# MCF-7 cells = experiment: In vitro cell uptake, MCF-7; format: cell-based, human; conditions: 60 min co-incubation with nonradioactive KISS1-54, 1,000-fold, p = 0.004
# Protocol: as §7
# MDA-MB-231 cells = experiment: In vitro cell uptake, MDA-MB-231; format: cell-based, human; conditions: 60 min co-incubation with nonradioactive KISS1-54, 1,000-fold, not significant, p = 0.08
# Protocol: as §7
# HepG2 cells = experiment: In vitro cell uptake, HepG2; format: cell-based, human; conditions: 60 min co-incubation with nonradioactive KISS1-54, 1,000-fold, p = 0.02
# Protocol: as §7
# HeLa cells = experiment: In vitro cell uptake, HeLa; format: cell-based, human; conditions: 60 min co-incubation with nonradioactive KISS1-54, 1,000-fold, p < 0.001
# Protocol: as §7
# [4] = Stability in injection solution by radio-HPLC; format: physicochemical; conditions: 3 h after preparation (EOS), diluted in PBS, room temperature, C18
# Protocol: The radiochemical purity of [^68Ga]KISS1-54 was determined via high-performance liquid chromatography (HPLC). A linear gradient started from 100% H2O (0.1% TFA) to 100% acetonitrile (0.1% TFA) over 10 min, with a flow rate of 0.7 mL/min, using a Nucleosil column (100-5 C18 125 × 4.6 mm) (CS-Chromatographie, Langerwehe, Germany) and HPLC system (Knauer, Berlin, Germany). For the determination of the in vitro stability, the [^68Ga]KISS1-54 solution was diluted in phosphate-buffered saline (PBS) and stored at room temperature, and the HPLC runs were repeated 1 h and 3 h after the end of synthesis.
# SK-BR-3 cells = experiment: In vitro cell uptake, SK-BR-3; format: cell-based, human; conditions: 60 min co-incubation with nonradioactive KISS1-54, 1,000-fold, p = 0.02
# Protocol: as §7
compound,measurement,setting,value
"O=C[C@H]([18F])[C@@H](O)[C@H](O)[C@H](O)CO [[^18F]FDG, 2-[^18F]fluoro-2-deoxyglucose, reference compound]",tumor uptake in control PET (tumor vitality),"[1]; MDA-MB-231 tumor, scan the day before [^68Ga]KISS1-54",clear FDG uptake
same,tumor uptake in control PET (tumor vitality),"LNCap tumor xenograft; LNCap tumor, scan the day before [^68Ga]KISS1-54",clear FDG uptake
"Nc1ncn([C@H]2C[C@H](O)[C@@H](CO)O2)c(=O)n1 [Decitabine, 5-Aza-2′-Deoxycytidine]",KISS1R level by immunofluorescence,KISS1R in HCT116 cells,increase in the KISS1R level
"KISS1-54: KISS1 peptide with 54 amino acids; nonradioactive blocking agent (GTSLSPPPESSGSPQQPGLSAPHSRQIPAPQGAVLVQREKDLPNYNWNSFGLRF; ends and bridges not checked; UniProt Q15726 68-121, looked up)",Ki,[2],1.45 ± 0.1 nM
"CC[C@H](C)[C@H](NC(=O)[C@H](CCC(N)=O)NC(=O)[C@H](CCCNC(=N)N)NC(=O)[C@H](CO)NC(=O)[C@H](Cc1c[nH]cn1)NC(=O)[C@@H]1CCCN1C(=O)[C@H](C)NC(=O)[C@H](CO)NC(=O)[C@H](CC(C)C)NC(=O)CNC(=O)[C@@H]1CCCN1C(=O)[C@H](CCC(N)=O)NC(=O)[C@H](CCC(N)=O)NC(=O)[C@H](CCCNC(=N)N)NC(=O)[C@H](CO)NC(=O)CNC(=O)[C@H](CO)NC(=O)[C@H](CO)NC(=O)[C@H](CCC(=O)O)NC(=O)[C@@H]1CCCN1C(=O)[C@@H]1CCCN1C(=O)[C@@H]1CCCN1C(=O)[C@H](CO)NC(=O)[C@H](CC(C)C)NC(=O)[C@H](CO)NC(=O)[C@@H](NC(=O)CNC(=O)CCC(C(=O)O)N1CCN(CC(=O)O)CCN(CC(=O)O)CC1)[C@@H](C)O)C(=O)N1CCC[C@H]1C(=O)N[C@@H](C)C(=O)N1CCC[C@H]1C(=O)N[C@@H](CCC(N)=O)C(=O)NCC(=O)N[C@@H](C)C(=O)N[C@H](C(=O)N[C@@H](CC(C)C)C(=O)N[C@H](C(=O)N[C@@H](CCC(N)=O)C(=O)N[C@@H](CCCNC(=N)N)C(=O)N[C@@H](CCC(=O)O)C(=O)N[C@@H](CCCCN)C(=O)N[C@@H](CC(=O)O)C(=O)N[C@@H](CC(C)C)C(=O)N1CCC[C@H]1C(=O)N[C@@H](CC(N)=O)C(=O)N[C@@H](Cc1ccc(O)cc1)C(=O)N[C@@H](CC(N)=O)C(=O)N[C@@H](Cc1c[nH]c2ccccc12)C(=O)N[C@@H](CC(N)=O)C(=O)N[C@@H](CO)C(=O)N[C@@H](Cc1ccccc1)C(=O)NCC(=O)N[C@@H](CC(C)C)C(=O)N[C@@H](CCCNC(=N)N)C(=O)N[C@@H](Cc1ccccc1)C(N)=O)C(C)C)C(C)C (some centres unmarked) [[^68Ga]KISS1-54, metal not drawn]","increased uptake after Decitabine treatment, with KISS1-54 co-incubation","HCT116 cells; DC-treated HCT116, 60 min co-incubation with KISS1-54",could be blocked
same,uptake in Decitabine-pre-incubated HCT116 versus untreated cells,"HCT116 cells; HCT116, 72 h pre-incubation with 5 µM Decitabine",significantly increased
same,"uptake with KISS1-54 co-incubation, relative to control without blocking","HCT116 cells; HCT116, 60 min co-incubation with nonradioactive KISS1-54, 1,000-fold, not significant, p = 0.07",76%
same,"uptake with KISS1-54 co-incubation, relative to control without blocking",LNCap cells,50%
same,"radiochemical purity after incubation in human serum, 1 h",[3],98.0%
same,tumor-to-muscle ratio,"[1]; MDA-MB-231, maximal tumor uptake/mean organ uptake, 60 min p.i.",1.4 ± 0.4
same,tumor uptake,"[1]; MDA-MB-231 tumor, 60 min p.i., i.v., µ-PET, mean ± SD, n = 10",0.7 ± 0.3 % ID/g
same,tumor visualisation in PET,"[1]; MDA-MB-231 tumor, n = 10, visual inspection",no significant uptake
same,tumor uptake,"LNCap tumor xenograft; LNCap tumor, 60 min p.i., i.v., µ-PET, mean ± SD, n = 8",0.9 ± 0.3 % ID/g
same,tumor visualisation in PET,"LNCap tumor xenograft; LNCap xenograft, n = 8, visual inspection",clearly delineated from the surrounding tissue
same,reduction of tumor uptake by co-injection of KISS1-54,"LNCap tumor xenograft; LNCap-bearing mice, nonradioactive KISS1-54 in 100-fold excess",26 ± 5%
same,tumor-to-muscle ratio,"LNCap tumor xenograft; LNCap, maximal tumor uptake/mean organ uptake, 60 min p.i.",2.0 ± 0.3
same,tissue uptake at 1 h,in vivo; tracer accumulation in brain,~0.2 %ID/g
same,tissue uptake at 1 h,in vivo; tracer accumulation in liver,~0.8 %ID/g
same,tissue uptake at 1 h,in vivo; tracer accumulation in muscle,~0.5 %ID/g
same,clearance,in vivo,rapid renal tracer clearance during the first few minutes
same,"uptake with KISS1-54 co-incubation, relative to control without blocking",MCF-7 cells,47%
same,"uptake with KISS1-54 co-incubation, relative to control without blocking",MDA-MB-231 cells,65%
same,"uptake with KISS1-54 co-incubation, relative to control without blocking",HepG2 cells,46%
same,"uptake with KISS1-54 co-incubation, relative to control without blocking",HeLa cells,40%
same,radiochemical purity in injection solution,[4],> 99%
same,"uptake with KISS1-54 co-incubation, relative to control without blocking",SK-BR-3 cells,46%
